Experimental data as given in ChEMBL document CHEMBL1149228, “Analysis of structure-activity relationships for the 'B-region' of N-(3-acyloxy-2-benzylpropyl)-N(')-[4-(methylsulfonylamino)benzyl]thiourea analogues as vanilloid receptor antagonists: discovery of an N-hydroxythiourea analogue with potent analgesic activity” (Bioorg Med Chem Lett, 2004).

Columns and labels:
[1] = target: T1, Transient receptor potential cation channel subfamily V member 1 (Rattus norvegicus, UniProt O35433); test: In vitro antagonist effect against 50 nM capsaicin-induced 45 [Ca2+] influx in vanilloid receptor expressing CHO cells; type: functional, cell-based
[2] = target: T1, Transient receptor potential cation channel subfamily V member 1; test: Agonist effect on 45 [Ca2+] influx in vanilloid receptor expressing CHO cells relative to maximal capsaicin (300 nM) response (ineffective); type: functional, cell-based
[3] = target: T1, Transient receptor potential cation channel subfamily V member 1; test: Binding affinity towards rat vanilloid receptor subtype 1 expressed in CHO cells by [3H]RTX displacement.; type: cell-based
[4] = target: Transient receptor potential cation channel subfamily V member 1 (Rattus norvegicus) (UniProt O35433); test: Agonist-induced 45 [Ca2+] influx relative to 300 nM capsaicin in vanilloid receptor expressing CHO cells
[5] = target: T1, Transient receptor potential cation channel subfamily V member 1; test: Agonist effect on 45 [Ca2+] influx in vanilloid receptor expressing CHO cells relative to maximal capsaicin (300 nM) response, weak effect at 30 µM
[6] = target: T1, Transient receptor potential cation channel subfamily V member 1; test: In vitro antagonist effect against 50 nM capsaicin-induced 45 [Ca2+] influx in vanilloid receptor expressing CHO cells (ineffective); type: functional, cell-based
[7] = target: Transient receptor potential cation channel subfamily V member 1 (Rattus norvegicus) (UniProt O35433); test: Inhibition of […] nM capsaicin-induced 45 [Ca2+] uptake in vanilloid receptor expressing CHO cells; type: functional, cell-based
[8] = target: T1, Transient receptor potential cation channel subfamily V member 1; test: Agonist effect on 45 [Ca2+] influx in vanilloid receptor expressing CHO cells relative to maximal capsaicin (300 nM) response; type: functional, cell-based
[9] = target: Transient receptor potential cation channel subfamily V member 1 (Rattus norvegicus) (UniProt O35433); test: Inhibition of […] nM capsaicin-induced 45 [Ca2+] influx in vanilloid receptor expressing CHO cells; type: functional, cell-based

T1 sequence (O35433 whole entry): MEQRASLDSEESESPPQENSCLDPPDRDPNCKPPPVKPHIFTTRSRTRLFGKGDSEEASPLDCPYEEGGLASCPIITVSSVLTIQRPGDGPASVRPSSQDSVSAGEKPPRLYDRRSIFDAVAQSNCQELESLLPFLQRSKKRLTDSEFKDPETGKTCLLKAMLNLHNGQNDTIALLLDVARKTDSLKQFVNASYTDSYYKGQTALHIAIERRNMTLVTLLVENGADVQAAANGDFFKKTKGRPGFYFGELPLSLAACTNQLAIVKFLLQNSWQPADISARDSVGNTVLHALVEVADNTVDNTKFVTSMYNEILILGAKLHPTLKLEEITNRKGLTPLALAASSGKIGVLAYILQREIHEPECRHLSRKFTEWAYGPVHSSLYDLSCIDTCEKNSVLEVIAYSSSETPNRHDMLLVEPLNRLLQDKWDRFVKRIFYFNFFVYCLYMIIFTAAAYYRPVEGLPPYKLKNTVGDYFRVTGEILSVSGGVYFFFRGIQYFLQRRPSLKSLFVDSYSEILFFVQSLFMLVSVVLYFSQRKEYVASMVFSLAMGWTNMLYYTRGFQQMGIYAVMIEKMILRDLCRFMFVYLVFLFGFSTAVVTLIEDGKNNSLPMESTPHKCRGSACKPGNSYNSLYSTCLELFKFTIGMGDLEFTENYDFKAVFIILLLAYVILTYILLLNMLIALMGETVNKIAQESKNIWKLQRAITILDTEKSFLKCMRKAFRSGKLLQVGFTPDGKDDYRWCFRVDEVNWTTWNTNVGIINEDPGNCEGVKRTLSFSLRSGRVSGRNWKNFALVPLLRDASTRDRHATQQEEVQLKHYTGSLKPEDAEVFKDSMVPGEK
Chain of Transient receptor potential cation channel subfamily V member 1 (Rattus norvegicus) (O35433 whole entry): as above

SMILES	IC50 [1] [nM]	Ki [3] [nM]	agonist efficacy [4] [%]	EC50 ([5]; cho)	IC50 [6]	other results
Cc1ccc(CC(CNC(=S)NCc2ccc(NS(C)(=O)=O)c(F)c2)COC(=O)C(C)(C)C)cc1C (centres undefined)	7.8	–	–	–	–	EC50 [2]: Not Active
CC(C)(C)C(=O)OCC(CNC(=S)NCc1ccc(NS(C)(=O)=O)c(F)c1)Cc1ccc(C(C)(C)C)cc1 (centres undefined)	52	22.6	5	Partially active	–	–
Cc1ccc(CC(COC(=O)C(C)(C)C)CN(O)/C(S)=N/Cc2ccc(NS(C)(=O)=O)cc2F)cc1C (centres undefined)	–	–	–	Partially active	Not Active	–
Cc1ccc(CC(CNC(=S)N(O)Cc2ccc(NS(C)(=O)=O)c(F)c2)COC(=O)C(C)(C)C)cc1C (centres undefined)	–	–	–	Partially active	Not Active	–
Cc1ccc(CC(CNC(=S)OCc2ccc(NS(C)(=O)=O)cc2)COC(=O)C(C)(C)C)cc1C (centres undefined)	440	336	11	Partially active	–	inhibition [7]: 79%
Cc1ccc(CC(CNC(=O)Cc2ccc(NS(C)(=O)=O)cc2)COC(=O)C(C)(C)C)cc1C (centres undefined)	460	500	5.6	Partially active	–	–
COc1cc(CC(=O)NCC(COC(=O)C(C)(C)C)Cc2ccc(C)c(C)c2)ccc1NS(C)(=O)=O (centres undefined)	–	430	–	–	Not Active	EC50 [8]: 244 nM
CC(C)(C)C(=O)OCC(Cc1ccc(C(C)(C)C)cc1)CN(O)/C(S)=N/Cc1ccc(NS(C)(=O)=O)c(F)c1 (centres undefined)	10100	405	13	Partially active	–	–
Cc1ccc(CC(COC(=O)Cc2ccc(NS(C)(=O)=O)cc2)COC(=O)C(C)(C)C)cc1C (centres undefined)	3600	1980	–	–	–	EC50 [2]: Not Active
Cc1ccc(CC(CNC(=S)OCc2ccc(NS(C)(=O)=O)c(F)c2)COC(=O)C(C)(C)C)cc1C (centres undefined)	170	210	7.5	Partially active	–	–
COc1cc(C/N=C(\S)N(O)CC(COC(=O)C(C)(C)C)Cc2ccc(C)c(C)c2)ccc1NS(C)(=O)=O (centres undefined)	–	396	–	–	Not Active	EC50 [8]: 809 nM
Cc1ccc(CC(COC(=O)C(C)(C)C)CN(O)/C(S)=N/Cc2ccc(NS(C)(=O)=O)cc2Cl)cc1C (centres undefined)	757	220	–	–	–	EC50 [2]: Not Active
Cc1ccc(CC(CNC(=S)N(O)Cc2ccc(NS(C)(=O)=O)cc2)COC(=O)C(C)(C)C)cc1C (centres undefined)	331	–	12	Partially active	–	–
Cc1ccc(CC(CNC(=O)Cc2ccc(NS(C)(=O)=O)c(F)c2)COC(=O)C(C)(C)C)cc1C (centres undefined)	–	–	10	Partially active	–	inhibition [9]: 65%
COc1cc(C/N=C(\S)NCC(COC(=O)C(C)(C)C)Cc2ccc(C)c(C)c2)ccc1NS(C)(=O)=O (centres undefined)	–	–	–	–	Not Active	–
Cc1ccc(CC(CN/C(S)=N/Cc2ccc(NS(C)(=O)=O)cc2)COC(=O)C(C)(C)C)cc1C (centres undefined)	67	–	–	Partially active	–	–
Cc1ccc(CC(COC(=O)C(C)(C)C)CN(O)/C(S)=N/Cc2ccc(NS(C)(=O)=O)c(F)c2)cc1C (centres undefined)	–	–	–	–	–	EC50 [2]: Not Active
Cc1ccc(CC(COC(=O)C(C)(C)C)CN(O)/C(S)=N/Cc2ccc(NS(C)(=O)=O)cc2)cc1C (centres undefined)	–	–	12	Partially active	–	–
CC(C)(C)C(=O)OCC(CNC(=O)Cc1ccc(NS(C)(=O)=O)c(F)c1)Cc1ccc(C(C)(C)C)cc1 (centres undefined)	440	74	7	Partially active	–	inhibition [9]: 56%
COc1cc(CO/C(S)=N/CC(COC(=O)C(C)(C)C)Cc2ccc(C)c(C)c2)ccc1NS(C)(=O)=O (centres undefined)	–	199	–	–	Not Active	EC50 ([5]; read-out: EC50): 373 nM
